Measured values as given in patent publication US8222229B2, “Peritoneal dialysis method” (Kowa Co., Ltd., priority 2002, dated 2012).

System: HPMC (human peritoneal mesothelial cells)
Assay: HPMC viability under high level glucose, cell counting (WST-1)
Assay type: cell-based
Details: for effect on decrease in the viability of HPMC attributed to glucose (as measured by absorbance): preincubation 3 h with 0, 10, 100, 1,000 μM test substance, then 8 h in glucose 5.8 mM, 75 mM, 140 mM, WST-1
Procedure: Peritoneal mesothelial cells (HPMC) were preincubated for three hours in culture media (M199) containing ATP (0, 10, 100, and 1,000 μM). The cells were washed with an HPMC culture medium (saline buffer) and then incubated for eight hours in culture media (M199) containing glucose at three different levels (5.8 mM, 75 mM, and 140 mM). HPMC viability was obtained through cell counting (WST-1).
Instead of ATP, adenosine, which is a metabolite of ATP, was employed to study the effect of adenosine on decrease in HPMC viability caused by high level glucose.
Prior to the step of preincubation with ATP-containing culture media in the procedure of Example 1, HPMC were preincubated for 30 minutes with each of the following selective ATP receptor antagonists: (1) Suramin (P2X, P2Y receptor antagonist; 10 μM), (2) Reactive Blue 2 (P2Y receptor antagonist; 30 μM), and (3) PPADS (P2X receptor antagonist; 10 μM). Thereafter, the test was performed as described in Example 1.

Compound	ATP's effect on decrease in the viability of HPMC attributed to glucose after ATP receptor antagonist pretreatment (HPMC preincubated 30 min with Suramin 10 μM, Reactive Blue 2 30 μM or PPADS 10 μM before ATP preincubation, glucose 5.8, 75, 140 mM)	effect on decrease in the viability of HPMC attributed to glucose (as measured by absorbance)
Nc1ncnc2c1ncn2[C@@H]1O[C@H](COP(=O)(O)OP(=O)(O)OP(=O)(O)O)[C@@H](O)[C@H]1O [ATP, adenosine triphosphate]	no effect of alleviating reduction in HPMC viability	decrease in viability caused by high level glucose was significantly alleviated
Nc1ncnc2c1ncn2[C@@H]1O[C@H](CO)[C@@H](O)[C@H]1O [Adenosine, adenosine, reference compound]	–	no effect of alleviating decrease in HPMC viability
